Values after ≈ are worked out from the molar mass of the structure shown. Where a name gives a salt, the structure may show the parent alone. Numbered stars: 1 amine (or outer) side, 2 acyl side, 3 side chain; on linkers, the order of the positions; unused ones are H or OH. Bridge positions count the residues as written; N and C are the ends. Square brackets hold non-standard residues; d marks the D form. Peptide text beside a SMILES is read from it. * marks the point of attachment. ξ: configuration not given here. X1 = N=C1NCCC([C@H](N[*:1])C(=O)[*:2])N1; ΔAla(Z-3-ureido) = NC(=O)N/C=C(\N)C(=O)O; ξβ3hOrn = NCCCC(N)CC(=O)*; Dap = NC[C@H](N)C(=O)O
What was measured:
Format in all cases: functional, organism-based
[1] = system: Mycolicibacterium smegmatis; assay: Antimycobacterial activity against Mycobacterium smegmatis assessed as growth inhibition in mid-logarithmic phase by spectrophotometry
[2] = system: Mycolicibacterium smegmatis; assay: Antimycobacterial activity against Mycobacterium smegmatis by GFP-based fluorescence assay
[3] = system: Mycolicibacterium smegmatis; assay: Antimycobacterial activity against Mycobacterium smegmatis grown in Luria-Bertani broth medium assessed as growth inhibition in mid-logarithmic phase by GFP-based fluorescence assay; settings: Mycolicibacterium smegmatis
[4] = system: Mycolicibacterium smegmatis; assay: Antimycobacterial activity against Mycobacterium smegmatis grown in carbon-limited broth medium assessed as growth inhibition in mid-logarithmic phase by GFP-based fluorescence assay; settings: Mycolicibacterium smegmatis
[5] = system: Mycolicibacterium smegmatis; assay: Antimycobacterial activity against Mycobacterium smegmatis grown in carbon-limited broth medium assessed as growth inhibition in mid-logarithmic phase by spectrophotometry; settings: Mycolicibacterium smegmatis
[6] = system: Mycolicibacterium smegmatis; assay: Antimycobacterial activity against Mycobacterium smegmatis grown in nitrogen -limited broth medium assessed as growth inhibition in mid-logarithmic phase by GFP-based fluorescence assay; settings: Mycolicibacterium smegmatis
[7] = system: Mycolicibacterium smegmatis; assay: Antimycobacterial activity against Mycobacterium smegmatis grown in nitrogen -limited broth medium assessed as growth inhibition in mid-logarithmic phase by spectrophotometry; settings: Mycolicibacterium smegmatis
[8] = system: Mycolicibacterium smegmatis; assay: Antimycobacterial activity against Mycobacterium smegmatis grown in Luria-Bertani broth medium assessed as growth inhibition in mid-logarithmic phase by spectrophotometry; settings: Mycolicibacterium smegmatis

| SMILES | MIC [1] [µM] | MIC [2] [µM] | IC50 ([2]; read-out: IC50) [µM] | IC50 [2] [µM] | MIC [3] [µM] | MIC [4] [µM] | MIC [5] [µM] | MIC [6] [µM] | MIC [7] [µM] | MIC [8] [µM] | IC50 [1] [µM] | IC50 [3] [µM] | IC50 [4] [µM] | IC50 [5] [µM] | IC50 [6] [µM] | IC50 [7] [µM] | IC50 [8] [µM] |
| --- | --- | --- | --- | --- | --- | --- | --- | --- | --- | --- | --- | --- | --- | --- | --- | --- | --- |
| C[C@@H]1NC(=O)[C@@H](N)CNC(=O)[C@H](C2CCNC(=N)N2)NC(=O)/C(=C/NC(N)=O)NC(=O)[C@H](CNC(=O)CC(N)CCCN)NC1=O.N=C1NCCC([C@@H]2NC(=O)/C(=C/NC(N)=O)NC(=O)[C@H](CNC(=O)CC(N)CCCN)NC(=O)[C@H](CO)NC(=O)[C@@H](N)CNC2=O)N1 (stereo partly drawn) [CAPREOMYCIN] (H-[Dap]S[Dap](ξβ3hOrn)[ΔAla(Z-3-ureido)][X1]; lactam 1-C) | 12.5 | 12.5 | 1.78 | – | – | – | – | – | – | – | 2.12 | – | – | – | – | – | – |
| c1ccc2c(c1)[I+]c1ccccc1-2 [DIPHENYLENEIODONIUM] | – | – | – | – | 6.25 | 3.12 | 3.12 | 3.12 | 3.12 | 6.25 | – | 6.77 | 8.53 | 8.53 | 1.63 | 1.63 | 6.77 |
| C[C@H]1c2cccc(O)c2C(=O)C2=C(O)[C@]3(O)C(=O)C(C(N)=O)=C(O)[C@@H](N(C)C)[C@@H]3[C@@H](O)[C@@H]21 [DOXYCYCLINE] | – | – | – | – | 1.56 (≈ 0.693 µg/mL) | 3.12 (≈ 1.39 µg/mL) | 3.12 (≈ 1.39 µg/mL) | 3.12 (≈ 1.39 µg/mL) | 3.12 (≈ 1.39 µg/mL) | 1.56 (≈ 0.693 µg/mL) | – | 0.76 | 2.98 | 2.98 | 1.95 | 1.95 | 0.76 |
| CC[C@@H](CO)NCCN[C@@H](CC)CO [ETHAMBUTOL] | 12.5 (≈ 2.55 µg/mL) | 12.5 (≈ 2.55 µg/mL) | 3.2 | – | – | – | – | – | – | – | 3.66 | – | – | – | – | – | – |
| CCc1cc(C(N)=S)ccn1 [ETHIONAMIDE] | 100 (≈ 16.6 µg/mL) | 100 (≈ 16.6 µg/mL) | 6.75 | – | – | – | – | – | – | – | 7.66 | – | – | – | – | – | – |
| COc1ccccc1CNCCCCCCNCCCCCCCCNCCCCCCNCc1ccccc1OC [METHOCTRAMINE HYDROCHLORIDE] | – | – | – | – | 12.5 | 12.5 | 12.5 | 12.5 | 12.5 | 12.5 | – | 15.9 | 6.88 | 6.88 | 7.45 | 7.45 | 15.9 |
| C[Se]C[C@H](N)C(=O)O [METHYLSELENOCYSTEINE] | – | – | – | – | > 50 | 12.5 (≈ 2.28 µg/mL) | 12.5 (≈ 2.28 µg/mL) | 12.5 (≈ 2.28 µg/mL) | 12.5 (≈ 2.28 µg/mL) | > 50 | – | > 50 | 2.19 | 2.19 | 0.6 | 0.6 | > 50 |
| O=C1c2c(O)ccc(O)c2C(=O)c2c(NCCNCCO)ccc(NCCNCCO)c21 [MITOXANTRONE] | – | – | – | – | 50 (≈ 22.2 µg/mL) | 50 (≈ 22.2 µg/mL) | 50 (≈ 22.2 µg/mL) | 50 (≈ 22.2 µg/mL) | 50 (≈ 22.2 µg/mL) | 50 (≈ 22.2 µg/mL) | – | 21.8 | 9.7 | 9.7 | 5.02 | 5.02 | 21.8 |
| N=C(N)c1ccc(OCCCCCOc2ccc(C(=N)N)cc2)cc1 [PENTAMIDINE] | – | – | – | – | 50 (≈ 17 µg/mL) | 25 (≈ 8.51 µg/mL) | 25 (≈ 8.51 µg/mL) | 50 (≈ 17 µg/mL) | 50 (≈ 17 µg/mL) | 50 (≈ 17 µg/mL) | – | 23.5 | 11.1 | 11.1 | 9.1 | 9.1 | 23.5 |
| c1cnc2c(c1)ccc1cccnc12 [PHENANTHROLINE] | – | – | – | – | 50 (≈ 9.01 µg/mL) | 12.5 (≈ 2.25 µg/mL) | 12.5 (≈ 2.25 µg/mL) | 12.5 (≈ 2.25 µg/mL) | 12.5 (≈ 2.25 µg/mL) | 50 (≈ 9.01 µg/mL) | – | 41.6 | 4.99 | 4.99 | 5.76 | 5.76 | 41.6 |
| CN[C@@H]1[C@H](O[C@H]2[C@H](O[C@H]3[C@H](O)[C@@H](O)[C@H](N=C(N)N)[C@@H](O)[C@@H]3N=C(N)N)O[C@@H](C)[C@]2(O)C=O)O[C@@H](CO)[C@H](O)[C@H]1O [STREPTOMYCIN] | 1.56 (≈ 0.907 µg/mL) | 1.56 (≈ 0.907 µg/mL) | 0.48 | – | – | – | – | – | – | – | 0.5 | – | – | – | – | – | – |
| CN[C@H](CC(C)C)C(=O)N[C@H]1C(=O)N[C@@H](CC(N)=O)C(=O)N[C@H]2C(=O)N[C@H]3C(=O)N[C@H](C(=O)N[C@H](C(=O)O)c4cc(O)cc(O)c4-c4cc3ccc4O)[C@H](O)c3ccc(c(Cl)c3)Oc3cc2cc(c3O[C@@H]2O[C@H](CO)[C@@H](O)[C@H](O)[C@H]2O[C@H]2C[C@](C)(N)[C@H](O)[C@H](C)O2)Oc2ccc(cc2Cl)[C@H]1O [VANCOMYCIN] | – | – | – | – | 12.5 (≈ 18.1 µg/mL) | 25 (≈ 36.2 µg/mL) | 25 (≈ 36.2 µg/mL) | 25 (≈ 36.2 µg/mL) | 25 (≈ 36.2 µg/mL) | 12.5 (≈ 18.1 µg/mL) | – | 3.18 | 16.7 | 16.7 | 11.1 | 11.1 | 3.18 |

Second part, led by results:

| MIC [1] [µM] | MIC [2] [µM] | IC50 ([2]; read-out: IC50) [µM] | IC50 [2] [µM] | MIC [3] [µM] | MIC [4] [µM] | MIC [5] [µM] | MIC [6] [µM] | MIC [7] [µM] | MIC [8] [µM] | SMILES | IC50 [1] [µM] | IC50 [3] [µM] | IC50 [4] [µM] | IC50 [5] [µM] | IC50 [6] [µM] | IC50 [7] [µM] | IC50 [8] [µM] |
| --- | --- | --- | --- | --- | --- | --- | --- | --- | --- | --- | --- | --- | --- | --- | --- | --- | --- |
| 12.5 (≈ 4.14 µg/mL) | 12.5 (≈ 4.14 µg/mL) | – | 1.07 | – | – | – | – | – | – | O=C(O)c1cn(C2CC2)c2cc(N3CCNCC3)c(F)cc2c1=O [CIPROFLOXACIN] | 1.98 | – | – | – | – | – | – |
| – | – | – | – | 12.5 (≈ 6.22 µg/mL) | 25 (≈ 12.4 µg/mL) | 25 (≈ 12.4 µg/mL) | 12.5 (≈ 6.22 µg/mL) | 12.5 (≈ 6.22 µg/mL) | 12.5 (≈ 6.22 µg/mL) | CC(=O)[C@]1(O)Cc2c(O)c3c(c(O)c2[C@@H](O[C@H]2C[C@H](N)[C@H](O)[C@H](C)O2)C1)C(=O)c1ccccc1C3=O [IDARUBICIN] | – | 3.61 | 6.68 | 6.68 | 5.13 | 5.13 | 3.61 |
| – | – | – | – | 12.5 (≈ 4.39 µg/mL) | 6.25 (≈ 2.2 µg/mL) | 6.25 (≈ 2.2 µg/mL) | 6.25 (≈ 2.2 µg/mL) | 6.25 (≈ 2.2 µg/mL) | 12.5 (≈ 4.39 µg/mL) | CCn1cc(C(=O)O)c(=O)c2cc(F)c(N3CCNC(C)C3)c(F)c21 (stereo unspecified) [LOMEFLOXACIN] | – | 4.33 | 4.88 | 4.88 | 1.44 | 1.44 | 4.33 |
| – | – | – | – | 12.5 (≈ 5.72 µg/mL) | 12.5 (≈ 5.72 µg/mL) | 12.5 (≈ 5.72 µg/mL) | 12.5 (≈ 5.72 µg/mL) | 12.5 (≈ 5.72 µg/mL) | 12.5 (≈ 5.72 µg/mL) | CN(C)c1ccc(O)c2c1C[C@H]1C[C@H]3[C@H](N(C)C)C(O)=C(C(N)=O)C(=O)[C@@]3(O)C(O)=C1C2=O [MINOCYCLINE] | – | 6.77 | 5.02 | 5.02 | 7.23 | 7.23 | 6.77 |
| – | – | – | – | 12.5 (≈ 4.09 µg/mL) | 6.25 (≈ 2.04 µg/mL) | 6.25 (≈ 2.04 µg/mL) | 6.25 (≈ 2.04 µg/mL) | 6.25 (≈ 2.04 µg/mL) | 12.5 (≈ 4.09 µg/mL) | O=C(Nc1ccc([N+](=O)[O-])cc1Cl)c1cc(Cl)ccc1O [NICLOSAMIDE] | – | 6.85 | 3.31 | 3.31 | 4.73 | 4.73 | 6.85 |
| – | – | – | – | 3.12 (≈ 1.13 µg/mL) | 6.25 (≈ 2.26 µg/mL) | 6.25 (≈ 2.26 µg/mL) | 6.25 (≈ 2.26 µg/mL) | 6.25 (≈ 2.26 µg/mL) | 3.12 (≈ 1.13 µg/mL) | CC1COc2c(N3CCN(C)CC3)c(F)cc3c(=O)c(C(=O)O)cn1c23 (stereo unspecified) [OFLOXACIN] | – | 2.03 | 3.13 | 3.13 | 1.73 | 1.73 | 2.03 |
| 6.25 (≈ 5.14 µg/mL) | 6.25 (≈ 5.14 µg/mL) | 3.11 | – | – | – | – | – | – | – | CO[C@H]1/C=C/O[C@@]2(C)Oc3c(C)c(O)c4c(O)c(c(/C=N/N5CCN(C)CC5)c(O)c4c3C2=O)NC(=O)/C(C)=C\C=C\[C@H](C)[C@H](O)[C@@H](C)[C@@H](O)[C@@H](C)[C@H](OC(C)=O)[C@@H]1C [RIFAMPIN] | 4.36 | – | – | – | – | – | – |
| 6.25 (≈ 2.78 µg/mL) | 6.25 (≈ 2.78 µg/mL) | 0.33 | – | – | – | – | – | – | – | CN(C)[C@@H]1C(O)=C(C(N)=O)C(=O)[C@@]2(O)C(O)=C3C(=O)c4c(O)cccc4[C@@](C)(O)[C@H]3C[C@@H]12 [TETRACYCLINE] | 0.41 | – | – | – | – | – | – |
| – | – | – | – | 50 (≈ 20.4 µg/mL) | 50 (≈ 20.4 µg/mL) | 50 (≈ 20.4 µg/mL) | 50 (≈ 20.4 µg/mL) | 50 (≈ 20.4 µg/mL) | 50 (≈ 20.4 µg/mL) | CN1CCN(CCCN2c3ccccc3Sc3ccc(C(F)(F)F)cc32)CC1 [TRIFLUOPERAZINE] | – | 12.3 | 12.3 | 12.3 | 3.15 | 3.15 | 12.3 |

— ChEMBL document CHEMBL1649296, “Modifying culture conditions in chemical library screening identifies alternative inhibitors of mycobacteria” (Antimicrob Agents Chemother, 2009)
